`NC(=O)NC(CC(=O)O)c1ccc(Br)cc1` (stereo not drawn) returned a melting point of 199 to 201 °C. The same measure for `Cc1cc([N+](=O)[O-])c(C)cc1C#N`: 119 to 121 °C; for `Nc1nnc(-c2cnn(-c3ccccc3)c2)o1`: 283 to 285 °C. The same measure for `CC(C)NS(=O)(=O)Cc1ccc(C#N)cc1`: 158 to 160 °C; for `N#Cc1cc(C(F)(F)F)ccc1O`: 152 to 154 °C; for `COc1ccc(CCn2c(S)nc3ccccc3c2=O)cc1OC`: 223 to 225 °C.

In turn, `C=CC(=O)Nc1ccc(Br)cc1` gave a melting point of 197 to 199 °C. The same measure for `COc1cccc(C(=O)O)n1`: 133 to 135 °C; for `CS(=O)(=O)N1CCc2c(N)cccc2C1`: 155 to 157 °C. Consider `Nc1nccc(-c2ccc([N+](=O)[O-])cc2)n1`, for which the melting point lay within 217 to 219 °C. `CN(Cc1ccccc1N)C(=O)c1cc2ccccc2o1` came in with a melting point of 109 to 111 °C. The same measure for `CC(C)(C)OC(=O)NC1CCCC1CN` (stereo not drawn): 99 to 101 °C; for `Cc1c(C(=O)O)cnc2c1c(=O)n(C)c(=O)n2C`: 279 to 281 °C; for `COc1ccc(Br)nc1C(F)(F)F`: 32 to 34 °C. The same measure for `Nc1nc(-c2c(F)cccc2F)n[nH]1`: 218 to 220 °C. In the case of `Cn1nc(-c2ccncc2)cc1O` it was 209 to 211 °C. In turn, `CC(C)(C)OC(=O)N1CCC2(CC1)CC2C(=O)NN` (stereo not drawn) returned a melting point of 132 to 134 °C. In the case of `COCCn1cc(C(=O)O)c2ccccc21` it was 123 to 125 °C; in that of `O=C(O)CCC(=O)c1ccc(Cl)s1`, 122 to 124 °C; in that of `O=C(O)C=Cc1csc(Br)c1`, 187 to 189 °C.

On to `Cc1cc(=O)[nH]cn1`, for which the melting point lay in the range of 138 to 140 °C. `O=C(O)CC1=NN(c2ncc(C(F)(F)F)cc2Cl)C(=O)C1` gave a melting point of 173 to 175 °C. The same measure for `O=S(=O)(F)c1ccc2cn[nH]c2c1`: 219 to 221 °C; for `CCC(NC(=O)OC(C)(C)C)c1ccccc1O` (stereo not drawn): 111 to 113 °C. `CC(C)(C)OC(=O)N1CCC(OCC(F)(F)F)(C(=O)O)CC1` came in with a melting point of 259 to 261 °C. `CC(=O)Nc1ccc(C)cc1O`: the melting point fell in the range of 170 to 172 °C. Molecule `Cc1cc(C(=O)O)nn1-c1ccc(Cl)cc1Cl` showed a melting point of 199 to 201 °C. The same measure for `CC1(C#N)CCN(C(=O)C(F)(F)F)CC1`: 41 to 43 °C. On to `CC1(c2ccco2)NC(=O)NC1=O` (stereo not drawn), for which the melting point is 179 to 181 °C. In the case of `CC(=O)N1CCC(O)C1` (stereo not drawn) it was 77 to 79 °C; in that of `N#Cc1c(Cl)nc(Cl)c(Cl)c1Cl`, 148 to 150 °C; in that of `CSc1nn(C)c2nc[nH]c(=O)c12`, 251 to 253 °C. In the case of `N#CCSc1ccc(C(=O)O)cc1` it was 269 to 271 °C; in that of `Nc1cc(I)ccc1Br`, 64 to 66 °C; in that of `CNc1ccc2ccccc2n1`, 69 to 71 °C. In the case of `CSc1ccc(C(=O)CCl)cc1NC(C)=O` it was 98 to 102 °C. Regarding `CCCn1cnc2c1c(=O)[nH]c(=O)n2C`, the melting point was 256 to 258 °C. Turning to `Cc1cc(Cl)cc([N+](=O)[O-])c1I`, the melting point lay in the range of 73 to 75 °C. `O=C(O)c1cc(F)cc(Cl)c1O` displayed a melting point of 210 to 212 °C. In the case of `O=[N+]([O-])c1cccc(-c2nnc(CCl)o2)c1`, the melting point lay within 115 to 117 °C. The same measure for `Cc1cc(F)c2nc(O)cc(C(=O)O)c2c1`: 337 to 339 °C.

The molecule `CCCc1noc2nc(C)cc(C(=O)O)c12` showed a melting point of 169 to 171 °C. The same measure for `NC(=O)N1CCCCC1C(=O)O` (stereo not drawn): 139 to 141 °C; for `Cc1ccc(S(=O)(=O)OC2C=CS(=O)(=O)C2)cc1` (stereo not drawn): 136 to 138 °C; for `Nc1cccc(NC(=O)C2CCCCC2)c1`: 139 to 141 °C.

In the case of `Nc1cc(C(=O)O)nc2ccccc12`, the melting point fell in the range of 276 to 278 °C. `CC1(C)CCc2c(sc(N)c2C(=O)N2CCOCC2)C1` displayed a melting point of 138 to 140 °C. `O=C(O)Cc1ccc(O)cc1Cl` had a melting point of 171 to 173 °C. The molecule `COc1ccc(CC2CC(=O)N2)cc1` (stereo not drawn) yielded a melting point of 97 to 99 °C.

For `O=C(O)c1csc(-c2cnn(-c3ccccc3)c2)n1`, the melting point fell in the range of 202 to 204 °C.

In turn, `Cc1cnc(C(=O)O)c(C)c1` returned a melting point of 150 to 152 °C. In the case of `CC1CCC(C)N1c1cn[nH]c1` (stereo not drawn) it was 65 to 67 °C. In the case of `O=C(O)c1cc(Cl)cc(Cl)n1` it was 93 to 95 °C.

`CC1Nc2cc(=O)[nH]n2C(C)C1CC(=O)O` (stereo not drawn) had a melting point of 235 to 237 °C. The same measure for `NC(=O)c1cccc(NCc2ccc(F)cc2)c1`: 136 to 138 °C. In the case of `O=C(O)c1cc(Cl)[nH]c(=O)c1` it was 249 to 251 °C; in that of `Cc1ccc(NCCC(N)=S)cc1`, 94 to 96 °C; in that of `Cn1cc(C(=O)O)c(-c2cccs2)n1`, 179 to 181 °C. In turn, `O=C(O)c1cccc(OCC(F)(F)F)c1` gave a melting point of 104 to 106 °C. In the case of `N#Cc1cc[nH]c1` it was 55 to 57 °C. The same measure for `O=C(c1cccnc1)c1ccc(F)cc1F`: 54 to 56 °C; for `N#CCc1cccc(C(=O)O)c1`: 166 to 168 °C; for `NC(=O)N1CCC(C(=O)O)CC1`: 193 to 195 °C. The same measure for `C=CCNC(=O)NC(C)(C)C(=O)O`: 125 to 127 °C; for `Nc1cc(F)cc(C(=O)O)c1F`: 161 to 163 °C; for `O=C(O)CCC1NC(=O)N(c2ccc(F)cc2F)C1=O` (stereo not drawn): 183 to 185 °C.

In turn, `CCOC(=O)C1CCC(=O)NC1` (stereo not drawn) gave a melting point of 66 to 68 °C.

Consider `CNC(C(N)=O)c1cccc(Br)c1` (stereo not drawn), for which the melting point fell in the range of 111 to 113 °C. In the case of `N#Cc1cccc(N2CCOC2=O)c1` it was 102 to 104 °C; in that of `CCCCn1c(=O)c(CCC(=O)O)nc2ccccc21`, 146 to 148 °C; in that of `O=C(Nc1ccc(S(=O)(=O)Cl)cc1)c1ccc(F)cc1`, 149 to 151 °C. The same measure for `O=[N+]([O-])c1ccc(Cl)nc1O`: 139 to 141 °C; for `Nc1ccc2[nH]c(-c3ccc(F)cc3)nc2c1`: 118 to 120 °C. The same measure for `Nc1nccc(-c2cccs2)n1`: 185 to 187 °C; for `CC(Cl)C(=O)c1ccc(C(C)(C)C)cc1` (stereo not drawn): 18 to 20 °C; for `CC(CSc1ccc(F)cc1)C(=O)O` (stereo not drawn): 61 to 63 °C. For `CC(C)(C)n1ncc2c(=O)[nH]cnc21`, the melting point lay in the range of 226 to 228 °C. For `CCOC(=O)COc1ccccc1C(=O)O`, the melting point lay in the range of 100 to 102 °C. On to `O=S1(=O)CCC(CCBr)C1` (stereo not drawn), for which the melting point lay in the range of 56 to 58 °C. The molecule `O=C(O)C1CC1c1ccncc1` (stereo not drawn) displayed a melting point of 228 to 230 °C. In the case of `CNC(=O)C(Br)Cc1ccccc1` (stereo not drawn) it was 103 to 105 °C.

As to `CCn1c(S)nnc1-c1cccs1`, the melting point fell in the range of 103 to 105 °C. In the case of `O=C(O)c1nn(-c2ccccc2F)c2c1CCC2` it was 194 to 196 °C; in that of `O=C(O)c1csc(-c2nnc[nH]2)n1`, 299 to 301 °C; in that of `O=C(O)c1cccnc1C1CC1`, 196 to 198 °C.

`Cc1cc(O)cc(C(=O)O)c1`: the melting point is 205 to 207 °C. Take `Clc1cc(NC2CCOc3ccccc32)ncn1` (stereo not drawn): the melting point was in the range of 129 to 131 °C. The same measure for `NC(=O)c1cccc(F)c1I`: 189 to 191 °C.

The term melting point denotes the temperature of the solid-liquid transition.

Source of the values: a melting point compilation (Tetko et al.).
